Measured values from patent US20250243180A1, “TARGETED PROTEIN DEGRADATION” (Monte Rosa Therapeutics AG, priority 2023, published 2025).
Read-outs that look alike come from different tables or passages of the source.

Key:
[1] = target: CRBN-DDB1 (Homo sapiens (Human), UniProt Q96SW2); test: Compound binding to CRBN by HTRF assay
Outline: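 HTRF displacement of Cy5-thalidomide probe (100 nM) from His-tagged CRBN-DDB1 (2.5 nM) with anti-His terbium cryptate, in HEPES/NaCl/TCEP/EDTA/Tween20 buffer; 11-point 1:3 dilution series, 30 min at ambient temperature. Signal (665/620 nm) normalized to lenalidomide and DMSO controls; EC50 fitted, Ki by Cheng-Prusoff from geometric mean EC50.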

[2] = target: NEK7 (Homo sapiens (Human), UniProt Q8TDX7+Q96SW2); test: NEK7 NanoBiT degradation assay in Cal51 NEK7 NanoBiT cell line; assay type: cell-based; settings: Cal51 NEK7 NanoBiT cells, 24 hours; for Dmax: CAL-51
Chain of NEK7 (Q8TDX7 whole entry): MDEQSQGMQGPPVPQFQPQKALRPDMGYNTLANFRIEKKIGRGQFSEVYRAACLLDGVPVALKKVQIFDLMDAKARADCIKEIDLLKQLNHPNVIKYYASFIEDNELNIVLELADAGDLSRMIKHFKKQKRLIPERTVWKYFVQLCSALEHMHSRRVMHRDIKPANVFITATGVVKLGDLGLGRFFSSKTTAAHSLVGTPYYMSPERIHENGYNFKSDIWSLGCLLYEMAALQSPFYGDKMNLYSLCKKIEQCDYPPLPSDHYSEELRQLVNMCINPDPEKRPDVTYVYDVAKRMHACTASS
Chain of NEK7 (Q96SW2 whole entry): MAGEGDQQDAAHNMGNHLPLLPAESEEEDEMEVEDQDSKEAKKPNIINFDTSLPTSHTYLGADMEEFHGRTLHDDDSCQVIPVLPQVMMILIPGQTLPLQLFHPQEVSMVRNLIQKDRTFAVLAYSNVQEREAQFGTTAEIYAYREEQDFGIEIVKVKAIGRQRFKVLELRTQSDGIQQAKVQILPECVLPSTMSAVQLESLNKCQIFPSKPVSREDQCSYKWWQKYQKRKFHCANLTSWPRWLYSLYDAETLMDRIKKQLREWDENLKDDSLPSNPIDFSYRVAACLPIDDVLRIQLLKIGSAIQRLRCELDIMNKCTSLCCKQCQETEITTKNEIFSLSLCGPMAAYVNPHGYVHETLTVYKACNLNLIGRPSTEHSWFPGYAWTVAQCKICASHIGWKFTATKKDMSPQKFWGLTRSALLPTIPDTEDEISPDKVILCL
Chain of NEK7 (Q16531 2-1140 partner): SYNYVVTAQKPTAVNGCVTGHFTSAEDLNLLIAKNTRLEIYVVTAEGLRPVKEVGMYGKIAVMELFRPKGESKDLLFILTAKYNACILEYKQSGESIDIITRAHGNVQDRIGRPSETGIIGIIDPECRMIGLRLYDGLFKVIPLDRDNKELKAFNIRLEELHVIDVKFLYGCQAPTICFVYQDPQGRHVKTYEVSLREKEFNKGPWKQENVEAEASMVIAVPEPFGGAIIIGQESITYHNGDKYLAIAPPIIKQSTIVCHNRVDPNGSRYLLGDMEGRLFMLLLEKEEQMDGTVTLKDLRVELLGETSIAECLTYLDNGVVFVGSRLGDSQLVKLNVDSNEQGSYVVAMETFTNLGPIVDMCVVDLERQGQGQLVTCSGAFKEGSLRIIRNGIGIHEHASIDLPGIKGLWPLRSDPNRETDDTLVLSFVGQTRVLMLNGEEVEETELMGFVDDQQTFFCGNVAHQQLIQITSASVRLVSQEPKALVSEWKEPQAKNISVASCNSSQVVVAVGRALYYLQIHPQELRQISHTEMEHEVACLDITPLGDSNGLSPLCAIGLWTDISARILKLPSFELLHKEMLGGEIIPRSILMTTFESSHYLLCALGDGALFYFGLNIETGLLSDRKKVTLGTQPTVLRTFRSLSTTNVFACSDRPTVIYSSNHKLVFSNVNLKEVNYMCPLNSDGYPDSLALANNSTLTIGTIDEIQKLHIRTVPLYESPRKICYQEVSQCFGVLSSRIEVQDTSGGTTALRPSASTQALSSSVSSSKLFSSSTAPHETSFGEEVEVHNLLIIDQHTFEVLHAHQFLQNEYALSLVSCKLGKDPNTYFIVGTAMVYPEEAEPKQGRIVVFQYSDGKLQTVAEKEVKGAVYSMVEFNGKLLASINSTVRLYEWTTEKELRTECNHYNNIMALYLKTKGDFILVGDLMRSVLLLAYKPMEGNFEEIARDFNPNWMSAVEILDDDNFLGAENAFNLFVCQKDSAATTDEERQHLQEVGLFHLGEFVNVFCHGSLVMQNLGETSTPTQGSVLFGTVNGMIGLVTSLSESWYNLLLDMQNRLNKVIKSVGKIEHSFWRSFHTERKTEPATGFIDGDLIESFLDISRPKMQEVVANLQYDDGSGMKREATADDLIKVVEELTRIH
Outline: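 Cal51 cells with CRISPR knock-in HiBiT-tagged endogenous NEK7 plus stable LgBiT, in live-cell Endurazine medium, seeded 16 h before dosing. Compounds at final 1 μM to 0.05 nM for 24 h at 37 °C, then luminescence read. Response normalized to plate controls and fitted with a 4-parameter logistic giving EC50.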

[3] = NEK7 degradation, read-out: NanoBiT Dmax
[4] = NEK7 degradation, read-out: NanoBiT DC50

Chain of CRBN-DDB1 (Q96SW2 whole entry): as the sequence (Q96SW2 whole entry) above
Chain of CRBN-DDB1 (Q16531 whole entry partner): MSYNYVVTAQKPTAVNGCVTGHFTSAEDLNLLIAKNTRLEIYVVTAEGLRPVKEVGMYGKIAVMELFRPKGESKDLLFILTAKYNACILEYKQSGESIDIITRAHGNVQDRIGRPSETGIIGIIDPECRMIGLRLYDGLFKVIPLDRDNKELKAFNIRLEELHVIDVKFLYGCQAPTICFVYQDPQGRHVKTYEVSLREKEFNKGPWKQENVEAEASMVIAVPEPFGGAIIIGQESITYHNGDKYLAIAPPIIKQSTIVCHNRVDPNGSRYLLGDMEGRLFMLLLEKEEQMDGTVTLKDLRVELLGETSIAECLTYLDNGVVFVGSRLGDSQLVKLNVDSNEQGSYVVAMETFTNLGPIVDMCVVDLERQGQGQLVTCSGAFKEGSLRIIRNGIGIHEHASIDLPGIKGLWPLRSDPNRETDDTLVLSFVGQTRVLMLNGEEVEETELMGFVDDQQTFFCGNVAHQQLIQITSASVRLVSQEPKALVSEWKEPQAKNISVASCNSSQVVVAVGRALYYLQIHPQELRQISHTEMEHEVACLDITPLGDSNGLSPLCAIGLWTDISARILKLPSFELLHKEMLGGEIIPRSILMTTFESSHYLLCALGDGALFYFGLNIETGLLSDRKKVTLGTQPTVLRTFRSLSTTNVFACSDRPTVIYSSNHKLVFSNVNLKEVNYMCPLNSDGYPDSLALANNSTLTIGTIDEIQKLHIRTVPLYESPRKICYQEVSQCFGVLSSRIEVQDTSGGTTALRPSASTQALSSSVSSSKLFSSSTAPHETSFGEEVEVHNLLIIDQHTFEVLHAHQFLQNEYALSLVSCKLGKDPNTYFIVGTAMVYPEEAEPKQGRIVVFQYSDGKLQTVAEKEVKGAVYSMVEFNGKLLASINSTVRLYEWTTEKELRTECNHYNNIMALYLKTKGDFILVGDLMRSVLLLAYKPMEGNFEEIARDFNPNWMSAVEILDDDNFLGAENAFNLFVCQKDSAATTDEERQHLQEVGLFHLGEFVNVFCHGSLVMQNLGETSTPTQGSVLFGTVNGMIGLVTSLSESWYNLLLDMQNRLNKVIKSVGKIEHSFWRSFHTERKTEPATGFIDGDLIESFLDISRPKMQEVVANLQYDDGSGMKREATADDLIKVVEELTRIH

Row | SMILES | EC50 [1] [nM] | EC50 ([1]; HTRF class, Cereblon binding) [nM] | Dmax ([2]; read-out: NEK7 NanoBiT Dmax) [%] | Dmax [2, 3] [%] | DC50 ([2]; read-out: NEK7 NanoBiT DC50) [nM] | DC50 [2, 4] [nM]
1 | CC(C)(C(=O)NCc1cc(Cl)c(C2CCC(=O)NC2=O)c(Cl)c1)c1cnc(CC(F)F)cn1 (stereo not drawn) [Compound 240] | 150 | 100 to 1000 | 69 | 50 to 75 | 79 | ≤ 100
2 | Cc1cnc(C(C)(CO)C(=O)NCc2cc(Cl)c(C3CCC(=O)NC3=O)c(Cl)c2)nc1 (stereo not drawn) [Compound 241, N-(3,5-dichloro-4-(2,6-dioxopiperidin-3-yl)benzyl)-3-hydroxy-2-methyl-2-(5-methylpyrimidin-2-yl)propanamide] | 140 | 100 to 1000 | 86 | > 75 | 15 | ≤ 100
3 | CC(C)(C(=O)NCc1cc(Cl)c(C2CCC(=O)NC2=O)c(C#N)c1)c1ccccc1 (stereo not drawn) [Compound 242, N-(3-chloro-5-cyano-4-(2,6-dioxopiperidin-3-yl)benzyl)-2-methyl-2-phenylpropanamide] | 430 | 100 to 1000 | 59 | 50 to 75 | 319 | 100 to 1000
4 | CC(C)(C(=O)NCc1cc(F)c(C2CCC(=O)NC2=O)c(Cl)c1)c1nc2ccccc2o1 (stereo not drawn) [Compound 249] | 70 | ≤ 100 | 87 | > 75 | 7 | ≤ 100
5 | COc1ccc(C(C)(C)C(=O)NCc2cc(F)c(C3CCC(=O)NC3=O)c(Cl)c2)cn1 (stereo not drawn) [Compound 250] | 70 | ≤ 100 | 96 | > 75 | 2 | ≤ 100
6 | CCOc1cnc(C(C)(C)C(=O)NCc2cc(F)c(C3CCC(=O)NC3=O)c(Cl)c2)cn1 (stereo not drawn) [Compound 252] | 50 | ≤ 100 | 93 | > 75 | 3 | ≤ 100
7 | Cc1cnc(C(C)(C)C(=O)NCc2cc(F)c(C3CCC(=O)NC3=O)c(Cl)c2)nc1 (stereo not drawn) [Compound 253] | 140 | 100 to 1000 | 45 | ≤ 50 | 778 | 100 to 1000
8 | CC(C)(C(=O)NCc1cc(Cl)c(C2CCC(=O)NC2=O)c(Cl)c1)c1cnc(OC(F)F)cn1 (stereo not drawn) [Compound 257] | 50 | ≤ 100 | 95 | > 75 | 1 | ≤ 100
9 | CCOc1ccc(C(C)(C)C(=O)NCc2cc(F)c(C3CCC(=O)NC3=O)c(Cl)c2)nn1 (stereo not drawn) [Compound 258] | 70 | ≤ 100 | 91 | > 75 | 4 | ≤ 100
10 | CC(C)(C(=O)NCc1cc(Cl)c(C2CCC(=O)NC2=O)c(Cl)c1)c1cnc(OC(F)(F)F)cn1 (stereo not drawn) [Compound 259] | 90 | ≤ 100 | 91 | > 75 | 6 | ≤ 100
11 | COc1ccc(C(C)(C)C(=O)NCc2cc(F)c(C3CCC(=O)NC3=O)c(Cl)c2)nn1 (stereo not drawn) [Compound 262] | 80 | ≤ 100 | 88 | > 75 | 12 | ≤ 100
12 | CC(F)(F)c1cnc(C(C)(C)C(=O)NCc2cc(Cl)c(C3CCC(=O)NC3=O)c(Cl)c2)cn1 (stereo not drawn) [Compound 263] | 100 | 100 to 1000 | 90 | > 75 | 7 | ≤ 100
13 | CC(C)(C(=O)NCc1cc(F)c(C2CCC(=O)NC2=O)c(Cl)c1)c1cnc(OC(F)(F)F)cn1 (stereo not drawn) [Compound 264] | 130 | 100 to 1000 | 68 | 50 to 75 | 100 | ≤ 100
14 | CC(C)(C(=O)NCc1cc(Cl)c(C2CCC(=O)NC2=O)c(Cl)c1)C1CCCO1 (stereo not drawn) [Compound 265, N-(3,5-dichloro-4-(2,6-dioxopiperidin-3-yl)benzyl)-2-methyl-2-(tetrahydrofuran-2-yl)propanamide] | 90 | ≤ 100 | 56 | 50 to 75 | 474 | 100 to 1000
15 | CC(C)(C(=O)NCc1cc(F)c(C2CCC(=O)NC2=O)c(Cl)c1)c1ccc(OC(F)F)nc1 (stereo not drawn) [Compound 267] | 110 | 100 to 1000 | 94 | > 75 | 3 | ≤ 100
16 | CC(C)(C(=O)NCc1cc(F)c(C2CCC(=O)NC2=O)c(Cl)c1)c1ccc(OCC(F)F)nc1 (stereo not drawn) [Compound 269, N-(3-chloro-4-(2,6-dioxopiperidin-3-yl)-5-fluorobenzyl)-2-(6-(2,2-difluoroethoxy)pyridin-3-yl)-2-methylpropanamide] | 100 | 100 to 1000 | 95 | > 75 | 1 | ≤ 100
17 | Cc1cnc(C(C)(C)C(=O)NCc2cc(F)c(C3CCC(=O)NC3=O)c(Cl)c2)o1 (stereo not drawn) [Compound 270, N-(3-chloro-4-(2,6-dioxopiperidin-3-yl)-5-fluorobenzyl)-2-methyl-2-(5-methyloxazol-2-yl)propanamide] | 190 | 100 to 1000 | 72 | 50 to 75 | 73 | ≤ 100

More lines, in order of falling EC50 [1], values ahead:

Row | EC50 [1] [nM] | EC50 ([1]; HTRF class, Cereblon binding) [nM] | Dmax ([2]; read-out: NEK7 NanoBiT Dmax) [%] | Dmax [2, 3] [%] | DC50 ([2]; read-out: NEK7 NanoBiT DC50) [nM] | DC50 [2, 4] [nM] | SMILES
18 | 660 | 100 to 1000 | 47 | ≤ 50 | 909 | 100 to 1000 | Cc1nc(CNC(=O)C(C)(C)c2ccccc2)cc(Cl)c1C1CCC(=O)NC1=O (stereo not drawn) [Compound 239, N-((4-chloro-5-(2,6-dioxopiperidin-3-yl)-6-methylpyridin-2-yl)methyl)-2-methyl-2-phenylpropanamide]
19 | 180 | 100 to 1000 | 82 | > 75 | 27 | ≤ 100 | CC(C)(C(=O)NCc1ccc(C2CCC(=O)NC2=O)c(Cl)c1)c1nc2ccccc2o1 (stereo not drawn) [Compound 246, 2-(benzo[d]oxazol-2-yl)-N-(3-chloro-4-(2,6-dioxopiperidin-3-yl)benzyl)-2-methylpropanamide]
20 | 160 | 100 to 1000 | 48 | ≤ 50 | 672 | 100 to 1000 | COCCc1cnc(C(C)(C)C(=O)NCc2cc(Cl)c(C3CCC(=O)NC3=O)c(Cl)c2)nc1 (stereo not drawn) [Compound 245, N-(3,5-dichloro-4-(2,6-dioxopiperidin-3-yl)benzyl)-2-(5-(2-methoxyethyl)pyrimidin-2-yl)-2-methylpropanamide]
21 | 120 | 100 to 1000 | 83 | > 75 | 20 | ≤ 100 | CCc1cnc(C(C)(C)C(=O)NCc2cc(Cl)c(C3CCC(=O)NC3=O)c(Cl)c2)cn1 (stereo not drawn) [Compound 247]
22 | 120 | 100 to 1000 | 55 | 50 to 75 | 278 | 100 to 1000 | Cc1coc(C(C)(C)C(=O)NCc2cc(F)c(C3CCC(=O)NC3=O)c(Cl)c2)n1 (stereo not drawn) [Compound 254]
23 | 120 | 100 to 1000 | 82 | > 75 | 15 | ≤ 100 | CC(C)(C(=O)NCc1cc(Cl)c(C2CCC(=O)NC2=O)c(Cl)c1)c1cn(C(C)(F)F)c(=O)cn1 (stereo not drawn) [Compound 266, N-(3,5-dichloro-4-(2,6-dioxopiperidin-3-yl)benzyl)-2-(4-(1,1-difluoroethyl)-5-oxo-4,5-dihydropyrazin-2-yl)-2-methylpropanamide]
24 | 120 | 100 to 1000 | 88 | > 75 | 11 | ≤ 100 | COc1conc1C(C)(C)C(=O)NCc1cc(F)c(C2CCC(=O)NC2=O)c(Cl)c1 (stereo not drawn) [Compound 268]
25 | 110 | 100 to 1000 | 47 | ≤ 50 | 480 | 100 to 1000 | CC(C)(C(=O)NCc1cc(F)c(C2CCC(=O)NC2=O)c(Cl)c1)c1cc(F)ccn1 (stereo not drawn) [Compound 260, N-(3-chloro-4-(2,6-dioxopiperidin-3-yl)-5-fluorobenzyl)-2-(4-fluoropyridin-2-yl)-2-methylpropanamide]
26 | 90 | ≤ 100 | 54 | 50 to 75 | 464 | 100 to 1000 | CC(F)(F)c1cnc(C(C)(C)C(=O)NCc2cc(F)c(C3CCC(=O)NC3=O)c(Cl)c2)cn1 (stereo not drawn) [Compound 255]
27 | 90 | ≤ 100 | 87 | > 75 | 12 | ≤ 100 | COc1ccc(C(C)(C)C(=O)NCc2cc(F)c(C3CCC(=O)NC3=O)c(Cl)c2)nc1 (stereo not drawn) [Compound 261]
28 | 80 | ≤ 100 | 92 | > 75 | 4 | ≤ 100 | COc1cnc(C(C)(C)C(=O)NCc2cc(F)c(C3CCC(=O)NC3=O)c(Cl)c2)cn1 (stereo not drawn) [Compound 251]
29 | 80 | ≤ 100 | 85 | > 75 | 11 | ≤ 100 | COc1cnc(C(C)(C)C(=O)NCc2cc(F)c(C3CCC(=O)NC3=O)c(Cl)c2)nc1 (stereo not drawn) [Compound 256]
30 | 70 | ≤ 100 | 95 | > 75 | 2 | ≤ 100 | CC(C)(C(=O)NCc1cc(Cl)c(C2CCC(=O)NC2=O)c(Cl)c1)c1cnc(Cl)cn1 (stereo not drawn) [Compound 248]
